Results on four compounds are retold here after patent US20170325451A1, “Use of Alkyl Gallate for Stimulating the Natural Defenses of Plants” (priority 2014, published 2017).

The structures appear in SMILES notation.

One series relates to tobacco leaf. Description: Infiltration of tobacco leaf: chlorosis and synthesis of autofluorescent compounds. Format: in vivo. To be noted: 4 days after infiltration; for production of autofluorescent compounds around the infiltration sites: solutions 5 mmol·L^−1, infiltrated. How it is done: The plants are 8 weeks old, in the 12-15 leaf stage, cultured in a greenhouse or growing chamber.
50 μL of different EG solutions having molar concentrations (0.5 mmol·L^−1 to 5 mmol·L^−1) and of MG and PG solutions having a molar concentration of 5 mmol·L^−1 are infiltrated on the upper side of the tobacco leaf. The negative control is water; the positive control is salicylic acid (SA) at a molar concentration of […].
The different plants are photographed 4 days after the infiltration.
The negative control is water.

A further series relates to tobacco BY-2 cells. Put plainly: Alkalinization of the extracellular medium of tobacco BY-2 cell cultures. Format: cell-based. To be noted: for alkalinization of the extracellular medium: molar concentrations from 2 to 5 mmol·L^−1, BY-2 cultures. As to the method: The cell cultures are tobacco BY-2 cells maintained in cultures at 24° C., under stirring in darkness.
EG solutions (molar concentrations from 0.5 mmol·L^−1 to 5 mmol·L^−1), MG (1 mmol·L^−1 and 5 mmol·L^−1), or PG solutions (1 mmol·L^−1 and 5 mmol·L^−1) are added to tobacco BY-2 cell cultures at time T0. The pH is measured continuously (every 10 min) in the extracellular medium for 150 minutes.
The cell cultures are tobacco BY-2 cells maintained in cultures at 24° C., under stirring and in darkness.
Two GA solutions (0.5 mmol·L^−1 and 5 mmol·L^−1) are added to tobacco BY-2 cell cultures at time T0. The pH is measured continuously (every 10 min) in the extracellular medium for 150 minutes. EG solutions at different molar concentrations (0.5 mmol·L^−1 and 5 mmol·L^−1) are used as controls.

For series [1], the system named is transcripts coding for pathogenesis-related proteins (PR1, PR2, PR3, PR5) in tobacco leaves. Description: Accumulation of PR transcripts in treated tobacco leaves (quantitative real-time PCR). It counts as in vivo. How it is done:
The markers for the acquired local response (ALR) are tested for in the tobacco leaves that have been treated by the infiltration method (20 infiltration points per leaf/50 μL per infiltration) or by spraying (sufficient quantity to cover the leaf and obtain saturation, or approximately 2 mL per leaf) at a rate of 3 leaves per plant (non-senescent basal leaves). The leaves treated are separated from the plant 4 days after treatment and frozen immediately in liquid nitrogen for grinding and extraction of the total RNA. The RNA is extracted in the presence of CTAB buffer according to the protocol described by Chang et al. (1993) [Chang S, Puryear J, Cairney J (1993) A simple and efficient method for isolation RNA from pine trees. Plant mol Biol rep 11: 113-116]. The total RNA is purified and treated by DNase I (1 U) and RNase inhibitor (40 U) (Euromedex), in order to eliminate any possible contamination of the genomic DNA. The total RNA assay is run on the spectrophotometer (NanoDrop-1000). The integrity of the RNA is checked by agarose gel electrophoresis (1%) by detection of the ribosomal RNA subunits. The complementary DNA is synthesized from 1 μg of total RNA using Euroscript Reverse Transcriptase (Eurogentec). The PCR reactions are carried out with the Mastermix for SYBR GREEN kit (Eurogentec) using the iCycler iQ5 software (Bio-Rad). The specificity of the amplification is verified by melting curve analysis. The gene coding for EF-1α is used as an internal control. The quantification of the transcripts is calculated according to the mathematical model developed by Pfaffl (2001). [Pfaffl (2001) A new mathematical model for relative quantification in real time RT-PCR. Nucl. Acids res 29: 2002-7]. […]
4 days after the infiltration, the transcripts coding for pathogenesis-related proteins (PR proteins) are measured by quantitative real-time PCR. The total RNA is extracted from the infiltrated tobacco leaves. The cDNA is synthesized, and the transcripts of interest are quantified using specific primers of the genes PR1, PR2 and PR3.
(In qPCR the cycle at which signal appears reflects the starting amount.)

Setting [2] is: 5 mmol·L^−1, infiltration, 4 days after treatment.
Setting [3] is: 5 mmol·L^−1, spraying, 4 days after treatment.
[4] abbreviates: 50 mmol·L^−1, infiltration, 4 days after treatment.
The mark [5] stands for this setting: GA solutions 58.8 and 5.88 mmol·L^−1, infiltrated.

For `CCOC(=O)c1cc(O)c(O)c(O)c1` [EG, ethyl gallate], the chlorosis entry in the series with tobacco leaf (EG solutions 0.5 to 5 mmol·L^−1, 50 μL infiltrated on tobacco leaf, natural light) is “do not induce chlorosis”. Also, the “production of autofluorescent compounds of the phytoalexin type around the infiltration sites” value in the series on tobacco leaf (EG solutions 0.5 to 5 mmol·L^−1, infiltrated, UV 312 nm) is given as “extensive production of autofluorescent compounds”. Besides, the “alkalinization of the extracellular medium” value (“alkalinization” for short) in the series with tobacco BY-2 cells is “induce a rapid alkalinization”. In addition, in series [1] (setting [2]), the “Relative quantities of transcripts PR1” value worked out at 6.7 ± 1.2, the “Relative quantities of transcripts PR2” value is on record as 6.2 ± 1.7 and the “Relative quantities of transcripts PR3” value is recorded as 5.6 ± 1.3. For the same compound, in series [1] (setting [3]), the “Relative quantities of transcripts PR1” value was 15 ± 0.4, the “Relative quantities of transcripts PR2” value is on record as 32 ± 4.6, the “Relative quantities of transcripts PR3” value stood at 23 ± 7.1 and the “Relative quantities of transcripts PR5” value is 14 ± 2.2. Also, in series [1] (setting [4]), the “Relative quantities of transcripts PR1” value is recorded as 3.7 ± 1.3, the “Relative quantities of transcripts PR2” value turned out to be 23.4 ± 3.3 and the “Relative quantities of transcripts PR3” value worked out at 30.4 ± 5.3. The “accumulation of transcripts that are markers of the defense reactions: PR1, PR2, PR3, PR5” value in series [1] (EG solutions 5 and 50 mmol·L^−1, infiltration or spraying) is given as “induce the accumulation of transcripts”.
For `CCCOC(=O)c1cc(O)c(O)c(O)c1` [PG, propyl gallate], the “production of autofluorescent compounds around the infiltration sites” value in the series with tobacco leaf (UV 312 nm) was “induce the same phenomenon of production of autofluorescent compounds”. Also, the “alkalinization” value in the series with tobacco BY-2 cells is recorded as “induce a rapid alkalinization”.
Regarding `COC(=O)c1cc(O)c(O)c(O)c1` [MG, methyl gallate], in the series with tobacco leaf (UV 312 nm), the “production of autofluorescent compounds around the infiltration sites” value is recorded as “induce the same phenomenon of production of autofluorescent compounds”. In addition, the “alkalinization” value with tobacco BY-2 cells was “induce a rapid alkalinization”.
Take `O=C(O)c1cc(O)c(O)c(O)c1` [GA, gallic acid, reference compound]: in the series on tobacco leaf (setting [5]), the “autofluorescent zones around the infiltration zones” value is on record as “not accompanied by autofluorescent zones” and the chlorosis entry is “induce strong chlorosis”. Further, the “effect on the pH of the culture medium” value in the series with tobacco BY-2 cells (GA solutions 0.5 and 5 mmol·L^−1, 150 minutes) is “no effect on the pH”. Besides, in series [1] (GA solution 5.88 mmol·L^−1, infiltration, 4 days after infiltration), the “accumulation of transcripts (PR1, PR2, PR3) compared to water” value is “does not induce a significant accumulation of transcripts”.
